According to US20210198629A1, “COMPOSITIONS AND METHODS FOR INCREASING BEIGING OF WHITE ADIPOSE TISSUE” (University of Georgia Research Foundation, Inc., priority 2018, published 2021):

Tests used:
AML xenograft model = conditions: cited from earlier work
DIO mice = experiment: Body weight, adiposity (BIS), food intake, treadmill exhaustion in DIO mice after oral BI-7273; type: in vivo, mouse
Protocol: Treadmill exhaustion test was performed with an Exer 3/6 treadmill and controller (Columbus Instruments). The treadmill was set up with a uphill inclination of 10%.
Mice were anesthetized with 1% isoflurane and lied flat dorsal side up with limbs perpendicular and tail straight. Four electrodes of ImpediVET were fastened with 28G needles and placed on four points on the midline of the body. Fat-free mass (FFM) and fat mass (FM) were calculated from total body water (TBW) determined by input body weight and complex impedance plotting of 256 frequencies between 4 kHz and 1000 kHz.
Given the above augmentation of whole-body energy expenditure in BI-7273 treated DIO models, whether BI-7273 is sufficient to induce body weight loss and reduce adiposity (anti-obesity effects) was also investigated. DIO models were gavaged with BI-7273 or control 0.5% Natrosol for 14 days as described above and later fed with HFD for one additional month. […] On average, BI-7273 treated DIO mice lost ˜15.5% of body weight at the end of the study (1.5 months after the start of gavage; FIG. 5F). This weight loss rate is higher than the criterium established by the Endocrine Society for effective treatment of obesity (>5% weight loss over three months) (Apovian, C. M., et al., J Clin Endocrinol Metab, 100, 342-362 (2015)).
Using bioimpedance spectroscopy (BIS), the adiposity (fat mass percent) of mice before and after gavage was measured. […] On average, the reduced fat mass (55 grams×21%=11.6 grams) in BI-7273 treated mice was more than the body weight loss at the end of the study (˜9 grams), which indicates a concomitant increase of lean mass in BI-7273 treated DIO mice.

[1] = tested on: iWAT and eWAT of diet-induced obesity (DIO) mice; experiment: Oral BI-7273 in DIO mice: WAT beiging, H/E, UCP1 IHC, RT-qPCR, mitochondrial copy number; type: in vivo, mouse; conditions: for mRNA levels of Ucp1, increase: vs control mice
Protocol: All animal studies were approved by the University of Georgia Institutional Animal Care and Use Committee (IACUC) and performed strictly following the guidelines Animals were housed in a temperature-controlled (22° C.) environment with 12:12-hrs light:dark cycle and allowed food and water […]. All mouse strains were purchased from the Jackson Laboratory: C57BL/6J: #000664; Ucp1-Cre: #024670; ROSA-INTACT: #021039. To generate diet-induced obesity and type 2 diabetes models, 8-week old C57BL/6J mice (both males and females) were fed with a high-fat diet (60% fat, Research Diet, catelog #D12492) for […]. To perform gavage feeding, animals were immobilized by hands and a gavage solution (0.5% Natrosol or 0.5% Natrosol containing BI-7273, […]) was administered through a 1 mL syringe equipped with a disposable gavage needle.
For histology, iWAT was excised from mice and fixed with 10% formalin, dehydrated and embedded in paraffin. The sliced tissue (5 μm) was stained with hematoxylin and eosin Y (Sigma Aldrich). Cell size was quantified by NIH ImageJ (ver 1.47t). Alternative sections were used for immunohistochemistry detection of UCP1 and H/E staining. Paraffin sections were antigen unmasked with Tris-EDTA buffer (10 mM Tris Base, 1 mM EDTA, 0.05% Tween 20, pH 9.0) in 93° C. for 15 min. Sections were blocked with blocking solution (10% normal goat serum and 1% BSA in PBS) for 1 hr at room temperature and incubated with the primary antibody (anti-UCP1, 1:200 diluted in blocking solution) overnight at 4° C. The endogenous peroxidase was quenched with 3% hydrogen peroxide. Sections were incubated with the secondary antibody for 1 hr at room temperature. Slides were developed with DAB (VectorLab) for 5 min followed with hemotoxylin conterstaining for 1 min. Color images were captured on a Leica DM4000B microscope equipped with a DFC450c camera.
Total RNA was isolated from tissue or cell culture using TRIzol. Total RNA (500 ng) from tissues or cell culture was used in 25 μL reverse transcription reactions (Maxima; Life technologies) and diluted into 250 μL. Diluted cDNA (2 μL) was used in quantitative PCR reactions (SsoAdvanced™ Universal SYBR Green mix; Bio-Rad) on a BioRad CFX384™ Real-Time PCR Detection System. Cq-values were determined and expression values were calculated by BioRad CFX Manager™ Software. Relative mRNA expression values were normalized to inner reference genes Rps18 and Tbp of each biological sample. For mitochondrial copy number qPCR, mitochondrial Cox2 gene was amplified and normalized to genomic β-globin gene.
[…]. The efficacy of BI-7273 in inducing beige adipocyte formation in vivo was tested within diet-induced obesity (DIO) and type 2 diabetes mouse models. To generate DIO models, adult C57BL/6 mice (8-week age, both males and females) were fed with a high-fat diet (HFD; 60% calories from fat) for 12 weeks. To administer BI-7273, BI-7273 mixed in 0.5% Natrosol (100 mg/kg/day, 200 uL) was gavaged for 14 days. For the control mice, 0.5% Natrosol in the same volume was gavaged during the same period. The high-fat diet was changed to the normal chow during gavaging to maximize the uptake of BI-7273. DIO models of control and BI-7273 treatment groups were euthanized after 14-day of gavaging and adipose tissues (iWAT and eWAT) were subjected to H/E staining and UCP1 immunohistochemistry (IHC) to identify beige adipocytes. […].

[2] = eWAT, 100 mg/kg/day gavage for 14 days
[3] = iWAT, 100 mg/kg/day gavage for 14 days

For `COc1cc(-c2cn(C)c(=O)c3cnccc23)cc(OC)c1CN(C)C` [BI-7273, 4-[4-[(dimethylamino)methyl]-3,5-dimethoxyphenyl]-2-methyl-2,7-naphthyridin-1-one], the antitumor activity (AML xenograft model) is given as “antitumor activity”, the reduced fat mass (DIO mice; 55 grams×21%, end of study) is given as 11.6 grams and the “adiposity (fat mass percent)” value (DIO mice; BIS, end of study, 1.5 months after the start of gavage, ~47% before gavage) is given as ~26%. The “treadmill performance (time until exhaustion)” value (DIO mice; after treatment) was “improved”, the food intake (DIO mice; before and after gavage, vs control group) was “comparable” and the body weight lost (DIO mice; end of study, 1.5 months after the start of gavage, HFD refeeding) was ~15.5%. The body weight loss (DIO mice; end of the study) was ~9 grams, the lean mass (DIO mice; inferred from fat mass vs body weight loss) was “increase” and the “mRNA levels of Pgc1β, increase” value [1, 2] was 4.9 fold. The “mRNA levels of Ucp1, increase” value [1, 2] was 6 fold, the Pgc1β expression ([1]; iBAT, limb muscles (TA, EDL), and liver) was “increased” and the “other beige adipocyte markers (Cedia, Dio2, Elovl3, Cox8b)” value ([1]; iWAT and eWAT, 100 mg/kg/day gavage for 14 days) was “increased”. For the same compound, the “overall size of adipocytes” value ([1]; iWAT and eWAT, 100 mg/kg/day gavage for 14 days, H/E) was “overtly reduced”, the “multiocular UCP1+pos beige adipocytes” value ([1]; iWAT and eWAT, 100 mg/kg/day gavage for 14 days, UCP1 IHC) was “induced the formation” and the “Pgc1α mRNA levels” value ([1]; iWAT or eWAT, 100 mg/kg/day gavage for 14 days) was “not affected”. For the same compound, the “mitochondrial genome copy number, higher than control DIO mice” value ([1]; iWAT, eWAT, iBAT, limb muscles, liver) was 2.5-8.5 folds, the “mRNA levels of Pgc1β, increase” value [1, 3] was 3.8 fold and the “mRNA levels of Ucp1, increase” value [1, 3] was 22 fold.
